Measurements as given in PMC7053212, “Auger radiopharmaceutical therapy targeting prostate-specific membrane antigen in a micrometastatic model of prostate cancer” (Theranostics, 2020).
Entries after “also recorded” stand apart in the source; their conditions may differ. Where two headings read alike, the source gives them in different places.

Experiments:
[1] = Long-term toxicity evaluation and necropsy, non-tumor-bearing mice; format: in vivo, CD1 mice
Description: Urinalysis evaluating specific gravity and urine protein levels via dipstick (Chemstrip Test Strips, Roche Diagnostics) was performed monthly for each animal. Terminal clinical and anatomic pathology was done in the Johns Hopkins Phenotyping and Comparative Pathology Core. Assessments included serum metabolic panel, blood counts, and complete necropsy with histopathology of more than 30 tissues as described previously.

[2] = Long-term biodistribution in normal tissues of non-tumor-bearing mice; format: in vivo, CD1 mice; settings: 18.5 MBq iv, mean
Description: Comparison between tumor and kidney uptake was performed using Student's t-test.

[3] = tested on: PSMA-positive micrometastatic PC model; design: method as in PMID 27230930; settings: 740 kBq; cited from earlier work
[4] = design: method as in PMID 27230930; settings: cited from earlier work
[5] = tested on: metastatic PC; design: method as in PMID 23863050; settings: cited from earlier work
[6] = tested on: epidermal growth factor receptor-positive metastatic breast cancer; design: method as in PMID 24753984; settings: activities up to 2.3 GBq; cited from earlier work
[7] = any activity up to 111 MBq, 12 months

O=C(O)CCC(NC(=O)NC(CCCCNC(=O)c1ccc([125I])cc1)C(=O)O)C(=O)O (stereo not shown) [^125I-DCIBzL]
Average blood urea nitrogen ([1]; 111 MBq, necropsy at 12 months): 14.5 mg/dL | Average creatinine ([1]; 111 MBq, necropsy at 12 months): 0.4 mg/dL | Maximum tolerated dose (MTD) ([1]; CD1 mice, 12 months): at least 111 MBq | Maximum tolerated dose (MTD) ([1]; activities up to 111 MBq iv, 12 months): not reached | Death from toxicity [1, 7]: No mouse treated with any activity of ^125I-DCIBzL died from toxicity | Long-term toxicity (weight, urinalysis, necropsy) [1, 7]: no appreciable toxicity; also recorded: no acute or long-term toxicity was noted; also recorded: no long-term toxicities were noted | Renal histopathology ([1]; highest activities, 12 months): mild renal tubule epithelial hypertrophic changes with occasional atypia | Average hemoglobin at necropsy ([1]; treated mice, 12 months): 12.8 g/dL | Long-term hematologic toxicity (histopathology of spleen, bone marrow, lymph nodes) ([1]; treated mice, 12 months): not noted | Late nephropathy on necropsy ([1]; up to 111 MBq, 12 months): no evidence of late nephropathy | Changes in body weight or urine protein levels ([1]; up to 111 MBq, 12 months, vs untreated): no consistent changes | % Injected Dose/gram Bladder ([2]; 2 weeks): 0.15 % Injected Dose/gram | % Injected Dose/gram Blood ([2]; 2 weeks): 0.01 % Injected Dose/gram | % Injected Dose/gram Heart ([2]; 2 weeks): 0.05 % Injected Dose/gram | % Injected Dose/gram Large intestine ([2]; 2 weeks): 0.05 % Injected Dose/gram | % Injected Dose/gram Liver ([2]; 2 weeks): 0.05 % Injected Dose/gram | % Injected Dose/gram Lung ([2]; 2 weeks): 0.31 % Injected Dose/gram | % Injected Dose/gram Muscle ([2]; 2 weeks): 0.05 % Injected Dose/gram | % Injected Dose/gram Pancreas ([2]; 2 weeks): 0.07 % Injected Dose/gram | % Injected Dose/gram Salivary gland ([2]; 2 weeks): 0.13 % Injected Dose/gram | % Injected Dose/gram Small intestine ([2]; 2 weeks): 0.03 % Injected Dose/gram | % Injected Dose/gram Spleen ([2]; 2 weeks): 0.77 % Injected Dose/gram | % Injected Dose/gram Stomach ([2]; 2 weeks): 0.05 % Injected Dose/gram | % Injected Dose/gram Bladder ([2]; 4 weeks): 0.06 % Injected Dose/gram | % Injected Dose/gram Blood ([2]; 4 weeks): 0.00 % Injected Dose/gram | % Injected Dose/gram Heart ([2]; 4 weeks): 0.02 % Injected Dose/gram | % Injected Dose/gram Large intestine ([2]; 4 weeks): 0.02 % Injected Dose/gram | % Injected Dose/gram Liver ([2]; 4 weeks): 0.02 % Injected Dose/gram | % Injected Dose/gram Lung ([2]; 4 weeks): 0.12 % Injected Dose/gram | % Injected Dose/gram Muscle ([2]; 4 weeks): 0.03 % Injected Dose/gram | % Injected Dose/gram Pancreas ([2]; 4 weeks): 0.03 % Injected Dose/gram | % Injected Dose/gram Salivary gland ([2]; 4 weeks): 0.05 % Injected Dose/gram | % Injected Dose/gram Small intestine ([2]; 4 weeks): 0.02 % Injected Dose/gram | % Injected Dose/gram Spleen ([2]; 4 weeks): 0.36 % Injected Dose/gram | % Injected Dose/gram Stomach ([2]; 4 weeks): 0.02 % Injected Dose/gram | % Injected Dose/gram Bladder ([2]; 6 weeks): 0.04 % Injected Dose/gram | % Injected Dose/gram Blood ([2]; 6 weeks): 0.00 % Injected Dose/gram | % Injected Dose/gram Heart ([2]; 6 weeks): 0.01 % Injected Dose/gram | % Injected Dose/gram Large intestine ([2]; 6 weeks): 0.02 % Injected Dose/gram | % Injected Dose/gram Liver ([2]; 6 weeks): 0.01 % Injected Dose/gram | % Injected Dose/gram Lung ([2]; 6 weeks): 0.05 % Injected Dose/gram | % Injected Dose/gram Muscle ([2]; 6 weeks): 0.02 % Injected Dose/gram | % Injected Dose/gram Pancreas ([2]; 6 weeks): 0.02 % Injected Dose/gram | % Injected Dose/gram Salivary gland ([2]; 6 weeks): 0.02 % Injected Dose/gram | % Injected Dose/gram Small intestine ([2]; 6 weeks): 0.01 % Injected Dose/gram | % Injected Dose/gram Spleen ([2]; 6 weeks): 0.10 % Injected Dose/gram | % Injected Dose/gram Stomach ([2]; 6 weeks): 0.01 % Injected Dose/gram | % Injected Dose/gram Bladder ([2]; 8 weeks): 0.01 % Injected Dose/gram | % Injected Dose/gram Blood ([2]; 8 weeks): 0.00 % Injected Dose/gram | % Injected Dose/gram Heart ([2]; 8 weeks): 0.00 % Injected Dose/gram | % Injected Dose/gram Large intestine ([2]; 8 weeks): 0.01 % Injected Dose/gram | % Injected Dose/gram Liver ([2]; 8 weeks): 0.00 % Injected Dose/gram | % Injected Dose/gram Lung ([2]; 8 weeks): 0.03 % Injected Dose/gram | % Injected Dose/gram Muscle ([2]; 8 weeks): 0.01 % Injected Dose/gram | % Injected Dose/gram Pancreas ([2]; 8 weeks): 0.01 % Injected Dose/gram | % Injected Dose/gram Salivary gland ([2]; 8 weeks): 0.01 % Injected Dose/gram | % Injected Dose/gram Small intestine ([2]; 8 weeks): 0.01 % Injected Dose/gram | % Injected Dose/gram Spleen ([2]; 8 weeks): 0.05 % Injected Dose/gram | % Injected Dose/gram Stomach ([2]; 8 weeks): 0.00 % Injected Dose/gram | % Injected Dose/gram Bladder ([2]; 10 weeks): 0.00 % Injected Dose/gram | % Injected Dose/gram Blood ([2]; 10 weeks): 0.00 % Injected Dose/gram | % Injected Dose/gram Heart ([2]; 10 weeks): 0.00 % Injected Dose/gram | % Injected Dose/gram Large intestine ([2]; 10 weeks): 0.00 % Injected Dose/gram | % Injected Dose/gram Liver ([2]; 10 weeks): 0.00 % Injected Dose/gram | % Injected Dose/gram Lung ([2]; 10 weeks): 0.00 % Injected Dose/gram | % Injected Dose/gram Muscle ([2]; 10 weeks): 0.00 % Injected Dose/gram | % Injected Dose/gram Pancreas ([2]; 10 weeks): 0.00 % Injected Dose/gram | % Injected Dose/gram Salivary gland ([2]; 10 weeks): 0.00 % Injected Dose/gram | % Injected Dose/gram Small intestine ([2]; 10 weeks): 0.00 % Injected Dose/gram | % Injected Dose/gram Spleen ([2]; 10 weeks): 0.01 % Injected Dose/gram | % Injected Dose/gram Stomach ([2]; 10 weeks): 0.00 % Injected Dose/gram | % Injected Dose/gram Bladder ([2]; 12 weeks): 0.00 % Injected Dose/gram | % Injected Dose/gram Blood ([2]; 12 weeks): 0.00 % Injected Dose/gram | % Injected Dose/gram Heart ([2]; 12 weeks): 0.00 % Injected Dose/gram | % Injected Dose/gram Large intestine ([2]; 12 weeks): 0.00 % Injected Dose/gram | % Injected Dose/gram Liver ([2]; 12 weeks): 0.00 % Injected Dose/gram | % Injected Dose/gram Lung ([2]; 12 weeks): 0.01 % Injected Dose/gram | % Injected Dose/gram Muscle ([2]; 12 weeks): 0.00 % Injected Dose/gram | % Injected Dose/gram Pancreas ([2]; 12 weeks): 0.00 % Injected Dose/gram | % Injected Dose/gram Salivary gland ([2]; 12 weeks): 0.00 % Injected Dose/gram | % Injected Dose/gram Small intestine ([2]; 12 weeks): 0.00 % Injected Dose/gram | % Injected Dose/gram Spleen ([2]; 12 weeks): 0.01 % Injected Dose/gram | % Injected Dose/gram Stomach ([2]; 12 weeks): 0.00 % Injected Dose/gram

O=C(O)CC[C@H](NC(=O)NC(CCCCNC(=O)c1ccc([211At])cc1)C(=O)O)C(=O)O (stereo partly drawn) [^211At-PSMA-6, (2S)-2-(3-(1-carboxy-5-(4-^211At-astatobenzamido)pentyl)ureido)-pentanedioic acid]
Increase in median survival [3]: ~2 fold | Maximum tolerated dose (MTD) ([4]; CD1 mice): 37 kBq | Dose-limiting toxicity [4]: dose-limiting late nephrotoxicity

[Cl][223Ra][Cl] [^223RaCl2]
Prolongation of survival [5]: 3 months

^111In-DTPA-hEGF: Auger RPT evaluated in a Phase I trial of epidermal growth factor receptor-positive metastatic breast cancer
MTD [6]: not reached
